In ChEMBL document CHEMBL1141047, “4-Phenyl-1,2,3,6-tetrahydropyridine, an excellent fragment to improve the potency of PARP-1 inhibitors” (Bioorg Med Chem Lett, 2005):

Molecular target: Poly [ADP-ribose] polymerase 1 (Homo sapiens, UniProt P09874)
Sequence (P09874 whole entry): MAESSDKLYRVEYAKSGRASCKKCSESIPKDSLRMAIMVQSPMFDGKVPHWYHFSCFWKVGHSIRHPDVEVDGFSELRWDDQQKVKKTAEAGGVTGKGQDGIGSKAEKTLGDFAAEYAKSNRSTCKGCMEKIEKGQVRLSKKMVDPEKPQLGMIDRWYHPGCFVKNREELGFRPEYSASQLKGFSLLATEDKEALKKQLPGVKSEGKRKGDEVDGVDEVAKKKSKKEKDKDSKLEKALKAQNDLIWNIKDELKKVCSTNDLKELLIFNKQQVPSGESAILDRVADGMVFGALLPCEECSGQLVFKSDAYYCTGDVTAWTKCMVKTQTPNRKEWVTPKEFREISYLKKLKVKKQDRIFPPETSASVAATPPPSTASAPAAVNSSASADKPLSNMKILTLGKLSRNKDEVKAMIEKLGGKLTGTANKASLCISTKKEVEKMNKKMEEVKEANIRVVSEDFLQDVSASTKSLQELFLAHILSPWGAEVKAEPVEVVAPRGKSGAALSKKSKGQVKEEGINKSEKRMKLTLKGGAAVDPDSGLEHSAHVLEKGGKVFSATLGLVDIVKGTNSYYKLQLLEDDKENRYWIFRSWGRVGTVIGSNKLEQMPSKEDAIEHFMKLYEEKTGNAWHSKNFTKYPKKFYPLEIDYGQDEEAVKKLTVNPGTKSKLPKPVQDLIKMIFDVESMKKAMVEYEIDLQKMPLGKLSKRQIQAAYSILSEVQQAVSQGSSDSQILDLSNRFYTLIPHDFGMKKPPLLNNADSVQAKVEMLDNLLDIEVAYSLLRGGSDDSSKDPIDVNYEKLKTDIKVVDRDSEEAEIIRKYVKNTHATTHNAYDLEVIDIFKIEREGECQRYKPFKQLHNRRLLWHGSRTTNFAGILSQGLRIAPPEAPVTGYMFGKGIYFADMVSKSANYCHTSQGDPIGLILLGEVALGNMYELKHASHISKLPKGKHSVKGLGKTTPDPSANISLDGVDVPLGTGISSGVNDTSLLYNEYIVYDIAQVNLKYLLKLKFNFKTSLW
Description: In vitro inhibitory concentration against Poly(ADP-ribose) polymerase 1

Row | Structure (SMILES) | IC50 [nM]
1 | O=C1N=C(CCCN2CC=C(c3ccccc3)CC2)NC2CCCCC12 (centres undefined) | 20
2 | O=C1N=C(CCCN2CC=C(c3ccccc3)CC2)NC2CCCCCC12 (centres undefined) | 495
3 | CC1(C)CCC2NC(CCCN3CC=C(c4ccccc4)CC3)=NC(=O)C2C1 (centres undefined) | > 10000
4 | CC1=NC(=O)C2CSCCC2N1 (centres undefined) | 467
5 | O=c1[nH]c2cc(CN3CCOCC3)ccc2c2ccccc12 | 23
6 | Oc1nnc(CCCCCN2CCOCC2)c2ccccc12 | 119
7 | O=C1NC(CCCN2CC=C(c3ccccc3)CC2)=NC2CCSCC12 (centres undefined) | 8.9
8 | O=c1[nH]c2ccc(CCCCN3CC=C(c4ccccc4)CC3)cc2c2ccccc12 | 119
9 | O=C1N=C(CCCN2CC=C(c3ccccc3)CC2)NC2CCOCC12 (centres undefined) | 200
10 | CC1CCC2NC(CCCN3CC=C(c4ccccc4)CC3)=NC(=O)C2C1 (centres undefined) | 274
11 | CN1CCC2NC(CCCN3CC=C(c4ccccc4)CC3)=NC(=O)C2C1 (centres undefined) | 6100
12 | O=C1N=C(CCCN2CC=C(c3ccccc3)CC2)NC2CCNCC12 (centres undefined) | 8600
13 | O=C1NC(CCCN2CC=C(c3ccccc3)CC2)=NC2CCCC12 (centres undefined) | 249
14 | O=c1[nH]nc(CCCCN2CCOCC2)c2ccccc12 | 950
